According to patent US20070232615A1, “Chemical Compounds” (priority 2004, published 2007):
pIC50: −log10 of the molar value.

Tested on: HIV
Experiment: HOS HIV infectivity assay (Table 2, strain not given)
Format: cell-based
Conditions: Human immunodeficiency virus 1, read-out: Activity Level
Protocol: HOS HIV-1 Infectivity Assay
Compounds were profiled against two HIV-1 viruses, the M-tropic (CCR5 utilizing) Ba-L strain and the T-tropic (CXCR4 utilizing) IIIB strain. Both viruses were propagated in human peripheral blood lymphocytes. Compounds were tested for there ability to block infection of the HOS cell line (expressing hCXCR4/hCCR5/hCD4/pHIV-LTR-luciferase) by either HIV-1 Ba-L or HIV-1 IIIB. Compound cytotoxicity was also examined in the absence of virus addition.
HOS HIV-1 Infectivity Assay Format
HOS cells (expressing hCXCR4/hCCR5/hCD4/pHIV-LTR-luciferase) were harvested and diluted in Dulbeccos modified Eagles media supplemented with 2% FCS and non-essential amino acid to a concentration of 60,000 cells/ml. The cells were plated into 96-well plates (100 ul per well) and the plates were placed in a tissue culture incubator (37° C.; 5% CO2/95% air) for a period of 24 h.
Subsequently, 50 ul of the desired drug solution (4 times the final concentration) was added to each well and the plates were returned to the tissue culture incubator (37° C.; 5% CO2/95% air) for 1 h. Following this incubation 50 ul of diluted virus was added to each well (approximately 2 million RLU per well of virus). The plates were returned to the tissue culture incubator (37° C.; 5% CO2/95% air) and were incubated for a further 96 h.
Following this incubation the endpoint for the virally infected cultures was quantified following addition of Steady-Glo Luciferase assay system reagent (Promega, Madison, Wis.). Cell viability or non-infected cultures was measured using a CellTiter-Glo luminescent cell viability assay system (Promega, Madison, Wis.). All luminescent readouts are performed on a Topcount luminescence detector (Packard, Meridien, Conn.).

SMILES: CN(Cc1cn2c(N3CCOCC3)cccc2n1)C1CCCc2cccnc21 (stereo not shown) [Example 20, N-Methyl-N-{[5-(4-morpholinyl)imidazo[1,2-a]pyridin-2-yl]methyl}-5,6,7,8-tetrahydro-8-quinolinamine]
- pIC50: 5.00 to 6.30

SMILES: CC(C)N(Cc1cn2c(N3CCNCC3)cccc2n1)C1CCCc2cccnc21 (stereo not shown) [Example 21, N-(1-Methylethyl)-N-{[5-(1-piperazinyl)imidazo[1,2-a]pyridin-2-yl]methyl}-5,6,7,8-tetrahydro-8-quinolinamine]
- pIC50: > 7.00

SMILES: FC(F)(F)CN(Cc1cn2c(N3CCNCC3)cccc2n1)C1CCCc2cccnc21 (stereo not shown) [Example 22, N-{[5-(1-piperazinyl)imidazo[1,2-a]pyridin-2-yl]methyl}-N-(2,2,2-trifluoroethyl)-5,6,7,8-tetrahydro-8-quinolinamine]
- pIC50: 6.30 to 7.00

SMILES: CN(Cc1cn2c(N3CC[C@@H](N(C)C)C3)cccc2n1)C1CCCc2cccnc21 (stereo partly drawn) [Example 23, N-({5-[(3R)-3-(Dimethylamino)-1-pyrrolidinyl]imidazo[1,2-a]pyridin-2-yl}methyl)-N-methyl-5,6,7,8-tetrahydro-8-quinolinamine]
- pIC50: > 7.00

SMILES: CN(Cc1cn2c(N3CC[C@H](N(C)C)C3)cccc2n1)C1CCCc2cccnc21 (stereo partly drawn) [Example 24, N-({5-[(3S)-3-(Dimethylamino)-1-pyrrolidinyl]imidazo[1,2-a]pyridin-2-yl}methyl)-N-methyl-5,6,7,8-tetrahydro-8-quinolinamine]
- pIC50: > 7.00

SMILES: CN(Cc1cn2c(N3CC(N)C3)cccc2n1)C1CCCc2cccnc21 (stereo not shown) [Example 25, N-{[5-(3-Amino-1-azetidinyl)imidazo[1,2-a]pyridin-2-yl]methyl}-N-methyl-5,6,7,8-tetrahydro-8-quinolinamine]
- pIC50: > 7.00

SMILES: CN(C)C1CN(c2cccc3nc(CN(C)C4CCCc5cccnc54)cn23)C1 (stereo not shown) [Example 26, N-({5-[3-(Dimethylamino)-1-azetidinyl]imidazo[1,2-a]pyridin-2-yl}methyl)-N-methyl-5,6,7,8-tetrahydro-8-quinolinamine]
- pIC50: 6.30 to 7.00

SMILES: CN(Cc1cn2c(N3CC[C@@H](N)C3)cccc2n1)C1CCCc2cccnc21 (stereo partly drawn) [Example 27, N-({5-[(3R)-3-Amino-1-pyrrolidinyl]imidazo[1,2-a]pyridin-2-yl}methyl)-N-methyl-5,6,7,8-tetrahydro-8-quinolinamine]
- pIC50: > 7.00

SMILES: CN1CCC(N(C)c2cccc3nc(CN(C)C4CCCc5cccnc54)cn23)CC1 (stereo not shown) [Example 28, N-Methyl-N-({5-[methyl(1-methyl-4-piperidinyl)amino]imidazo[1,2-a]pyridin-2-yl}methyl)-5,6,7,8-tetrahydro-8-quinolinamine]
- pIC50: 6.30 to 7.00

SMILES: CN1CCC(N(C)c2cccc3nc(CN(C)C4CCCc5cccnc54)cn23)C1 (stereo not shown) [Example 29, N-Methyl-N-({5-[methyl(1-methyl-3-pyrrolidinyl)amino]imidazo[1,2-a]pyridin-2-yl}methyl)-5,6,7,8-tetrahydro-8-quinolinamine]
- pIC50: > 7.00

SMILES: CN(Cc1cn2c(N3CCCNCC3)cccc2n1)C1CCCc2cccnc21 (stereo not shown) [Example 30, N-{[5-(Hexahydro-1H-1,4-diazepin-1-yl)imidazo[1,2-a]pyridin-2-yl]methyl}-N-methyl-5,6,7,8-tetrahydro-8-quinolinamine]
- pIC50: > 7.00

SMILES: CN1CCCN(c2cccc3nc(CN(C)C4CCCc5cccnc54)cn23)CC1 (stereo not shown) [Example 31, N-Methyl-N-{[5-(4-methylhexahydro-1H-1,4-diazepin-1-yl)imidazo[1,2-a]pyridin-2-yl]methyl}-5,6,7,8-tetrahydro-8-quinolinamine]
- pIC50: > 7.00

SMILES: CN(C)CCN1CCN(c2cccc3nc(CN(C)C4CCCc5cccnc54)cn23)CC1 (stereo not shown) [Example 32, N-[(5-{4-[2-(Dimethylamino)ethyl]-1-piperazinyl}imidazo[1,2-a]pyridin-2-yl)methyl]-N-methyl-5,6,7,8-tetrahydro-8-quinolinamine]
- pIC50: 6.30 to 7.00

SMILES: COCCN1CCN(c2cccc3nc(CN(C)C4CCCc5cccnc54)cn23)CC1 (stereo not shown) [Example 33, N-Methyl-N-[(5-{4-[2-(methyloxy)ethyl]-1-piperazinyl}imidazo[1,2-a]pyridin-2-yl)methyl]-5,6,7,8-tetrahydro-8-quinolinamine]
- pIC50: > 7.00

SMILES: CN1CCN(c2cccc3nc(CN(C4CC4)C4CCCc5cccnc54)cn23)CC1 (stereo not shown) [Example 34, N-Cyclopropyl-N-{[5-(4-methyl-1-piperazinyl)imidazo[1,2-a]pyridin-2-yl]methyl}-5,6,7,8-tetrahydro-8-quinolinamine]
- pIC50: > 7.00

SMILES: CNC1CCN(c2cccc3nc(CN(C)C4CCCc5cccnc54)cn23)CC1 (stereo not shown) [Example 36, N-Methyl-N-({5-[4-(methylamino)-1-piperidinyl]imidazo[1,2-a]pyridin-2-yl}methyl)-5,6,7,8-tetrahydro-8-quinolinamine]
- pIC50: > 7.00

SMILES: CN(Cc1cn2c(N3CCC(N)CC3)cccc2n1)C1CCCc2cccnc21 (stereo not shown) [Example 37, N-{[5-(4-Amino-1-piperidinyl)imidazo[1,2-a]pyridin-2-yl]methyl}-N-methyl-5,6,7,8-tetrahydro-8-quinolinamine]
- pIC50: > 7.00

SMILES: CN(C)C1CCN(c2cccc3nc(CN(C)C4CCCc5cccnc54)cn23)CC1 (stereo not shown) [Example 38, N-({5-[4-(Dimethylamino)-1-piperidinyl]imidazo[1,2-a]pyridin-2-yl}methyl)-N-methyl-5,6,7,8-tetrahydro-8-quinolinamine]
- pIC50: > 7.00

SMILES: CN1CCN(c2cccc3nc(CNC4CCCc5cccnc54)cn23)CC1 (stereo not shown) [Example 39, N-{[5-(4-Methyl-1-piperazinyl)imidazo[1,2-a]pyridin-2-yl]methyl}-5,6,7,8-tetrahydro-8-quinolinamine]
- pIC50: > 7.00

SMILES: CN(Cc1cn2c(-c3cccnc3)cccc2n1)C1CCCc2cccnc21 (stereo not shown) [Example 40, N-Methyl-N-{[5-(3-pyridinyl)imidazo[1,2-a]pyridin-2-yl]methyl}-5,6,7,8-tetrahydro-8-quinolinamine]
- pIC50: 5.00 to 6.30

SMILES: CN(C)Cc1cccc(-c2cccc3nc(CN(C)C4CCCc5cccnc54)cn23)c1 (stereo not shown) [Example 41, N-[(5-{3-[(Dimethylamino)methyl]phenyl}imidazo[1,2-a]pyridin-2-yl)methyl]-N-methyl-5,6,7,8-tetrahydro-8-quinolinamine]
- pIC50: 6.30 to 7.00

SMILES: CN(C)Cc1ccccc1-c1cccc2nc(CN(C)C3CCCc4cccnc43)cn12 (stereo not shown) [Example 42, N-[(5-{2-[(Dimethylamino)methyl]phenyl}imidazo[1,2-a]pyridin-2-yl)methyl]-N-methyl-5,6,7,8-tetrahydro-8-quinolinamine]
- pIC50: 6.30 to 7.00

SMILES: CN(Cc1cn2c(N)cccc2n1)C1CCCc2cccnc21 (stereo not shown) [Example 43, N-[(5-Aminoimidazo[1,2-a]pyridin-2-yl)methyl]-N-methyl-5,6,7,8-tetrahydro-8-quinolinamine]
- pIC50: 6.30 to 7.00

SMILES: CN(Cc1cn2c(NC(=O)c3cccnc3)cccc2n1)C1CCCc2cccnc21 (stereo not shown) [Example 44, N-(2-{[Methyl(5,6,7,8-tetrahydro-8-quinolinyl)amino]methyl}imidazo[1,2-a]pyridin-5-yl)-3-pyridinecarboxamide]
- pIC50: 5.00 to 6.30

SMILES: CN(Cc1cn2c(NC(=O)c3ccncc3)cccc2n1)C1CCCc2cccnc21 (stereo not shown) [Example 45, N-(2-{[Methyl(5,6,7,8-tetrahydro-8-quinolinyl)amino]methyl}imidazo[1,2-a]pyridin-5-yl)-4-pyridinecarboxamide]
- pIC50: 5.00 to 6.30

SMILES: CN1CCN(c2cccc3nc(CN(C)C4CCc5cccnc54)cn23)CC1 (stereo not shown) [Example 46, N-Methyl-N-{[5-(4-methyl-1-piperazinyl)imidazo[1,2-a]pyridin-2-yl]methyl}-6,7-dihydro-5H-cyclopenta[b]pyridin-7-amine]
- pIC50: > 7.00

SMILES: CN1CCN(c2cccc3nc(CN(C)C4CCCCc5cccnc54)cn23)CC1 (stereo not shown) [Example 47, N-Methyl-N-{[5-(4-methyl-1-piperazinyl)imidazo[1,2-a]pyridin-2-yl]methyl}-6,7,8,9-tetrahydro-5H-cyclohepta[b]pyridin-9-amine]
- pIC50: > 7.00

SMILES: COc1ccc([C@H](C)N(Cc2cn3c(N4CCN(C)CC4)cccc3n2)[C@H]2CCCc3cccnc32)cc1 [Example 48, (8S)—N-{(1S)-1-[4-(Methyloxy)phenyl]ethyl}-N-{[5-(4-methyl-1-piperazinyl)imidazo[1,2-a]pyridin-2-yl]methyl}-5,6,7,8-tetrahydro-8-quinolinamine]
- pIC50: 6.30 to 7.00

SMILES: CN1CCN(c2cccc3nc(CN(C)[C@H]4CCCc5cccnc54)cn23)CC1 [Example 50, (8S)—N-Methyl-N-{[5-(4-methyl-1-piperazinyl)imidazo[1,2-a]pyridin-2-yl]methyl}-5,6,7,8-tetrahydro-8-quinolinamine]
- pIC50: > 7.00

SMILES: CN1CCN(c2cccc3nc(CN(C)[C@@H]4CCCc5cccnc54)cn23)CC1 [Example 52, (8R)—N-Methyl-N-{[5-(4-methyl-1-piperazinyl)imidazo[1,2-a]pyridin-2-yl]methyl}-5,6,7,8-tetrahydro-8-quinolinamine]
- pIC50: > 7.00

SMILES: CC(C)CN(Cc1cn2c(N3CCN(C)CC3)cccc2n1)[C@H]1CCCc2cccnc21 [Example 53, (8S)—N-{[5-(4-Methyl-1-piperazinyl)imidazo[1,2-a]pyridin-2-yl]methyl}-N-(2-methylpropyl)-5,6,7,8-tetrahydro-8-quinolinamine]
- pIC50: > 7.00
